Source: PMC11173485, “Connecting GSK-3β Inhibitory Activity with IKK-β or ROCK-1 Inhibition to Target Tau Aggregation and Neuroinflammation in Alzheimer’s Disease—Discovery, In Vitro and In Cellulo Activity of Thiazole-Based Inhibitors” (Molecules, 2024)

How the values were obtained:
[1] = biological target: T1, ROCK-1 (Homo sapiens, UniProt Q13464); test: ADP-Glo kinase assay, ROCK-1 inhibition; format: biochemical; conditions: for inhibition at 10 µM: mean ± SD, read-out: % inh. at 10 µM ROCK-1; for IC50: mean ± SEM, ATP 5 µM
T1 construct: purchased Promega
T1 sequence (Q13464 whole entry): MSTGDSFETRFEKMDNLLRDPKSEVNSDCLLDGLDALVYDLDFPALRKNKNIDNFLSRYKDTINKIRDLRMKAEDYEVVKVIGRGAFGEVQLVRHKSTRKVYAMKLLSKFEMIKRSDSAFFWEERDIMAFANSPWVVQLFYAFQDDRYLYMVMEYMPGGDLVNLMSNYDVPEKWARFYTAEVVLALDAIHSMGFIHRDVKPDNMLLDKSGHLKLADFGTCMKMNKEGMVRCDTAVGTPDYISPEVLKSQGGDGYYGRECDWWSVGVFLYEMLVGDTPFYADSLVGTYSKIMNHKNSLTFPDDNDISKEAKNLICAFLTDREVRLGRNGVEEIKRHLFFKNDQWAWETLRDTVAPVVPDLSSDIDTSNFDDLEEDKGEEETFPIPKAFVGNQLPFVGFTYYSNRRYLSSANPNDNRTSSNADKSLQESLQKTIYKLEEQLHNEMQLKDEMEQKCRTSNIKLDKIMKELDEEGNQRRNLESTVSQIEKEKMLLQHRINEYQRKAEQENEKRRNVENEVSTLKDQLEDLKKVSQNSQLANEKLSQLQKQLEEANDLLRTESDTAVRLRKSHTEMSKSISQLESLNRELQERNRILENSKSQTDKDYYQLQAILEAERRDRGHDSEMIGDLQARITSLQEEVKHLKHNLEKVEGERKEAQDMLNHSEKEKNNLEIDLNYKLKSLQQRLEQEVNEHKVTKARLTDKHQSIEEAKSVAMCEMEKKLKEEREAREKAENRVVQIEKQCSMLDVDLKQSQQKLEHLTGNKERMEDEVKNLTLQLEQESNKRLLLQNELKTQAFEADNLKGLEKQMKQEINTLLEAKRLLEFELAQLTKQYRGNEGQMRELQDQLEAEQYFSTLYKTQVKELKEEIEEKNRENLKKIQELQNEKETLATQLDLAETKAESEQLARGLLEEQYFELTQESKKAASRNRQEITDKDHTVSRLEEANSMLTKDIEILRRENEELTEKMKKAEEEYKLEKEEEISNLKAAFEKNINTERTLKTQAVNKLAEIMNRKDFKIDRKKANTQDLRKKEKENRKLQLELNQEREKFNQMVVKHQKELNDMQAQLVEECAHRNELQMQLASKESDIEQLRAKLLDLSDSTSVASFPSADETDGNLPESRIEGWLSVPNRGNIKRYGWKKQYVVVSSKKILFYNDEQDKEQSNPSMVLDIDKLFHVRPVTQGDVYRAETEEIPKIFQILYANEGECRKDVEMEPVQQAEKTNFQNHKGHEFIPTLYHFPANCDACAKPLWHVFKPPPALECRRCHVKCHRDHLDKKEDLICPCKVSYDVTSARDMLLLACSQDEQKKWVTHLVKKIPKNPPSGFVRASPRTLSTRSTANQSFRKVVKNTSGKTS
From the text: (§1) We evaluated the inhibitory activity of the final compounds against GSK-3β, IKK-β, and ROCK-1 kinases using the commercially available ADP-Glo™ kinase assay. The method was based on the measurement of luminescence that correlates with kinase activity. […] The latter are inhibitors of the kinases of interest and were integral to the design of our studies.
Promega’s Kinase Enzyme Systems (Promega; Madison, WI, USA) were used to determine the activities of the tested compounds against the human recombinant kinases GSK-3β, IKK- β, and ROCK-1. The assays were performed according to the provided manufacturer’s instruction, based on the optimized conditions of the enzymatic reactions, using the low-volume, white polystyrene, 384-well plates. The ADP-Glo™ Assay (Promega; Madison, WI, USA) was used for bioluminescent detection of the kinase activity. Stock solutions of the tested compounds in DMSO (1mM) were diluted with the Kinase Assay Buffer before use (40 mM Tris, pH 7.5, enriched with 50 µM dithiothreitol; DTT), giving the final desired concentrations. The kinase enzymes, substrates, and ATP solutions were also diluted with the assay buffer prior to use. The GSK-3β, IKK-β, and ROCK-1 substrates were derived from human muscle glycogen synthase 1, human IkBA, and human 40S ribosomal protein S6, respectively. […] The DMSO solution (1% in well) was used in the blank samples instead of the tested inhibitors. After the incubation period, ATP (25 µM per well in the case of GSK-3β and IKK-β kinases; 5 µM per well in the case of ROCK-1 kinase) and an appropriate enzyme substrate (0.2 µg/µL in well) were added to start the enzymatic reaction. The reaction mixture was kept at room temperature for 1 h; then, the ADP-Glo™ reagent was added, to terminate the kinase reaction and deplete any remaining ATP. After 40 min, a second reagent (Kinase Detection Reagent) was applied to convert the obtained ADP to ATP and to generate light from the newly synthesized ATP using a luciferase/luciferin reaction. The mixture was incubated for another 30 min at room temperature before the luminescence was measured. The calculations of the percent of kinases’ inhibition by tested compounds were based on the equation 100 − (S/B) × 100; S and B are the enzyme activities with and without the tested sample, respectively. […]. IC50 results were obtained using nonlinear regression (GraphPad Prism 9; GraphPad Software, San Diego, CA, USA) by plotting the residual enzyme activities against the applied inhibitor concentration. Each compound was evaluated in two independent experiments, with every data point collected in duplicate.

[2] = biological target: GSK-3β (Homo sapiens, UniProt P49841); test: ADP-Glo kinase assay, GSK-3β inhibition; format: biochemical; parameters: purchased Promega; conditions: for IC50: mean ± SEM, ATP 25 µM; for inhibition at 10 µM: mean ± SD, read-out: % inh. at 10 µM GSK-3β
GSK-3β, sequence (P49841 whole entry): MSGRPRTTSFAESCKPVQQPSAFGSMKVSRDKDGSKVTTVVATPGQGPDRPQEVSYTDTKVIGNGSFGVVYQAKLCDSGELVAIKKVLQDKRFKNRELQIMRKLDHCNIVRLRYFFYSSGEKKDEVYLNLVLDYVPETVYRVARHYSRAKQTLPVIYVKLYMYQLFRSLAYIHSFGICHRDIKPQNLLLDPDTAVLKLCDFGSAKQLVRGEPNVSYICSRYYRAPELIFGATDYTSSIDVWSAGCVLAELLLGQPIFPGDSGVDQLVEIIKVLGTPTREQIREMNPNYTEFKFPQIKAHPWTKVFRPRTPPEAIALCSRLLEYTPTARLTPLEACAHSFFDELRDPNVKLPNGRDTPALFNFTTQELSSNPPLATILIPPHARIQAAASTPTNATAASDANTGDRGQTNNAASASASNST
From the text: as §1
(§2) Promega’s Kinase Enzyme Systems (Promega; Madison, WI, USA) were used to determine the activities of the tested compounds against the human recombinant kinases GSK-3β, IKK- β, and ROCK-1. The assays were performed according to the provided manufacturer’s instruction, based on the optimized conditions of the enzymatic reactions, using the low-volume, white polystyrene, 384-well plates. The ADP-Glo™ Assay (Promega; Madison, WI, USA) was used for bioluminescent detection of the kinase activity. Stock solutions of the tested compounds in DMSO (1mM) were diluted with the Kinase Assay Buffer before use (40 mM Tris, pH 7.5, enriched with 50 µM dithiothreitol; DTT), giving the final desired concentrations. The kinase enzymes, substrates, and ATP solutions were also diluted with the assay buffer prior to use. The GSK-3β, IKK-β, and ROCK-1 substrates were derived from human muscle glycogen synthase 1, human IkBA, and human 40S ribosomal protein S6, respectively. The assay procedure was as follows: At first, the appropriate kinase enzyme (GSK-3β: 10 ng per well; IKK-β: 45 ng per well; ROCK-1: 24 ng per well) was incubated with the tested sample (10 µM in well) for 5 min. The DMSO solution (1% in well) was used in the blank samples instead of the tested inhibitors. After the incubation period, ATP (25 µM per well in the case of GSK-3β and IKK-β kinases; 5 µM per well in the case of ROCK-1 kinase) and an appropriate enzyme substrate (0.2 µg/µL in well) were added to start the enzymatic reaction. The reaction mixture was kept at room temperature for 1 h; then, the ADP-Glo™ reagent was added, to terminate the kinase reaction and deplete any remaining ATP. After 40 min, a second reagent (Kinase Detection Reagent) was applied to convert the obtained ADP to ATP and to generate light from the newly synthesized ATP using a luciferase/luciferin reaction. The mixture was incubated for another 30 min at room temperature before the luminescence was measured. The calculations of the percent of kinases’ inhibition by tested compounds were based on the equation 100 − (S/B) × 100; S and B are the enzyme activities with and without the tested sample, respectively. […] Each compound was evaluated in two independent experiments, with every data point collected in duplicate.

[3] = biological target: T2, IKK-β (Homo sapiens, UniProt O14920); test: ADP-Glo kinase assay, IKK-β inhibition; format: biochemical; conditions: for IC50: mean ± SEM, ATP 25 µM; for inhibition at 10 µM: mean ± SD, read-out: % inh. at 10 µM IKK-β
T2 construct: purchased Promega
T2 sequence (O14920 1-756): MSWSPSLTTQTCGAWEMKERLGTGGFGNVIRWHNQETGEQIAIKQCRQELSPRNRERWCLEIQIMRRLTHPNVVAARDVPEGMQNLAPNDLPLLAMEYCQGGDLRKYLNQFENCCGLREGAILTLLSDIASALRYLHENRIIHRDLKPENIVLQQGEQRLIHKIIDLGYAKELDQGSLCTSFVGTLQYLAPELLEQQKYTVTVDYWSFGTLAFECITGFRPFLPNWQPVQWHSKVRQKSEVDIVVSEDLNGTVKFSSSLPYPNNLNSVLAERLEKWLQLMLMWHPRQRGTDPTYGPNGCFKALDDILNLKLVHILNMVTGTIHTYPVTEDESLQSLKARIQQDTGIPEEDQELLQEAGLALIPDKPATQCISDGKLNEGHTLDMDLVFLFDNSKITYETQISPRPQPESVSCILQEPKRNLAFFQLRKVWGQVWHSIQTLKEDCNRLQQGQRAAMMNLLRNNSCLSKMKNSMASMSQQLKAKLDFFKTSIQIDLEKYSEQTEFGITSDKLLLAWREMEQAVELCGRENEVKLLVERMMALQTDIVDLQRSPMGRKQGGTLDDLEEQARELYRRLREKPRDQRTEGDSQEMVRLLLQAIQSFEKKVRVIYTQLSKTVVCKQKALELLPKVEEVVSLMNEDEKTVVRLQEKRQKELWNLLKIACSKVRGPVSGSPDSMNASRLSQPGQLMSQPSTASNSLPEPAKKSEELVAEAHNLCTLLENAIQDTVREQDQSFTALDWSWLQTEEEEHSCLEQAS
From the text: as §1, §2

[4] = system: ROCK-1; parameters: method as in PMID 28284870; conditions: Figure 1; cited from earlier work
[5] = system: IKK-β; parameters: method as in PMID 15125939; conditions: Figure 1; cited from earlier work

SMILES | inhibition at 10 µM [1] [%] | IC50 [2] [nM] | IC50 [3] [µM] | inhibition at 10 µM [3] [%] | IC50 [1] [nM] | inhibition at 10 µM [2] [%] | IC50 [4] [nM] | IC50 [5] [nM]
CC(=O)Nc1cc(-c2cc3c(s2)C(=O)NC(C)(C)N3)ccn1 [Compound 38, N-(4-(2,2-Dimethyl-4-oxo-1,2,3,4-tetrahydrothieno [3,2-d]pyrimidin-6-yl)pyridin-2-yl)acetamide] | 50 | 1130 ± 43 | 6.52 ± 0.281 | – | – | – | – | –
CC1(C)NC(=O)c2sc(-c3ccnc(NC(=O)C4CCCCC4)c3)cc2N1 [Compound 42, N-(4-(2,2-Dimethyl-4-oxo-1,2,3,4-tetrahydrothieno [3,2-d]pyrimidin-6-yl)pyridin-2-yl)-cyclohexanecarboxamide] | 30 | 830 ± 30 | – | 18 | – | – | – | –
CC1(C)NC(=O)c2sc(-c3ccnc(NC(=O)c4ccccc4)c3)cc2N1 [Compound 43, N-(4-(2,2-Dimethyl-4-oxo-1,2,3,4-tetrahydrothieno [3,2-d]pyrimidin-6-yl)pyridin-2-yl)benzamide] | – | 1310 ± 42 | – | 38 | 3740 ± 217 | – | – | –
CC1(C)NC(=O)c2sc(-c3ccnc(NS(C)(=O)=O)c3)cc2N1 [Compound 44, N-(4-(2,2-Dimethyl-4-oxo-1,2,3,4-tetrahydrothieno [3,2-d]pyrimidin-6-yl)pyridin-2-yl)-methanesulfonamide] | < 10 | – | – | < 10 | – | 32 | – | –
CCS(=O)(=O)Nc1cc(-c2cc3c(s2)C(=O)NC(C)(C)N3)ccn1 [Compound 45, N-(4-(2,2-Dimethyl-4-oxo-1,2,3,4-tetrahydrothieno [3,2-d]pyrimidin-6-yl)pyridin-2-yl)-ethanesulfonamide] | < 10 | – | – | < 10 | – | 40 | – | –
CC1(C)NC(=O)c2sc(-c3ccnc(NCC4CC4)c3)cc2N1 [Compound 46, 6-(2-((Cyclopropylmethyl)amino)pyridin-4-yl)-2,2-dimethyl-2,3-dihydrothieno [3,2-d]pyrimidin-4(1H)-one] | – | – | – | 41 | 1730 ± 78 | 39 | – | –
CC(=O)Nc1cc(-c2cc(NC(N)=O)c(C(N)=O)s2)ccn1 [Compound 47, 5-(2-Acetamidopyridin-4-yl)-3-ureidothiophene-2-carboxamide] | – | – | – | 17 | – | 34 | – | –
NC(=O)Nc1cc(-c2ccnc(NC(=O)C3CCCCC3)c2)sc1C(N)=O [Compound 51, 5-(2-(Cyclohexanecarboxamido)pyridin-4-yl)-3-ureidothiophene-2-carboxamide] | – | 614 ± 26 | – | < 10 | – | – | – | –
NC(=O)Nc1cc(-c2ccnc(NC(=O)c3ccccc3)c2)sc1C(N)=O [Compound 52, 5-(2-Benzamidopyridin-4-yl)-3-ureidothiophene-2-carboxamide] | 15 | 398 ± 12 | – | 30 | – | – | – | –
CC1(C)NC(=O)c2sc(-c3cccc(NC(=O)C4CC4)c3)cc2N1 [Compound 53, N-(3-(2,2-Dimethyl-4-oxo-1,2,3,4-tetrahydrothieno [3,2-d]pyrimidin-6-yl)phenyl)cyclopropanecarboxamide] | < 10 | – | – | < 10 | – | 47 | – | –
CC1(C)NC(=O)c2sc(-c3ccc(F)c(NC(=O)C4CC4)c3)cc2N1 [Compound 54, N-(5-(2,2-Dimethyl-4-oxo-1,2,3,4-tetrahydrothieno [3,2-d]pyrimidin-6-yl)-2-fluorophenyl)-cyclopropanecarboxamide] | – | 453 ± 13 | – | 10 | – | – | – | –
CCS(=O)(=O)Nc1cccc(-c2cc3c(s2)C(=O)NC(C)(C)N3)c1 [Compound 55, N-(3-(2,2-Dimethyl-4-oxo-1,2,3,4-tetrahydrothieno [3,2-d]pyrimidin-6-yl)phenyl)ethanesulfonamide] | < 10 | – | – | 16 | – | 11 | – | –
CC1(C)NC(=O)c2sc(-c3cccc(NS(=O)(=O)C4CCCCC4)c3)cc2N1 [Compound 56, N-(3-(2,2-Dimethyl-4-oxo-1,2,3,4-tetrahydrothieno [3,2-d]pyrimidin-6-yl)phenyl)cyclohexanesulfonamide] | 33 | – | – | < 10 | – | < 10 | – | –
CC1(C)NC(=O)c2sc(-c3cccc(S(=O)(=O)N4CCCCC4)c3)cc2N1 [Compound 57, 2,2-Dimethyl-6-(3-(piperidin-1-ylsulfonyl)phenyl)-2,3-dihydrothieno [3,2-d]pyrimidin-4(1H)-one] | < 10 | – | – | 17 | – | < 10 | – | –
NC(=O)Nc1cc(-c2ccc(F)c(NC(=O)C3CC3)c2)sc1C(N)=O [Compound 59, 5-(3-(Cyclopropanecarboxamido)-4-fluorophenyl)-3-ureidothiophene-2-carboxamide] | < 10 | 1850 ± 38 | 7.62 ± 0.695 | – | – | – | – | –
O=C1NC2(CCCO2)Nc2cc(-c3ccnc(NC(=O)C4CC4)c3)sc21 (stereo not shown) [Compound 61, N-(4-(4′-Oxo-3′,4,4′,5-tetrahydro-1′H,3H-spiro[furan-2,2′-thieno [3,2-d]pyrimidin]-6′-yl)pyridin-2-yl)cyclopropanecarboxamide] | 40 | 12 | – | < 10 | – | – | – | –
CC1(C)NC(=O)c2sc(-c3ccncc3)cc2N1 [I, reference compound] | – | 161 ± 2 | – | 46 | 119 ± 6 | – | 90 | –
NC(=O)Nc1cc(-c2ccc(F)cc2)sc1C(N)=O [III, reference compound] | – | – | 0.405 ± 0.009 | – | – | 47 | – | 63
